According to patent publication US20160129155A1, “MUSCULOSKELETAL TISSUE FABRICATION” (University of Pittsburgh - Of the Commonwealth System of …, priority 2014, published 2016):

Key:
hASCs [1] = format: cell-based; settings: 28 days
Experimental: P3 hASCs were pelleted by centrifugation and the supernatant was completely removed. The polymer solution prepared above was used to re-suspend hASCs at 4×10^6cells/ml, and then the cell-polymer solution was immediately poured into the basement plate of the PSL device for printing with different 3D models as the template.
(§1) The fabricated constructs were detached from the platform and washed 3 times to remove uncured polymer solution. The constructs were cultured in control medium (CM, DMEM with 1% L-alanyl-L-glutamine, 55 μM sodium pyruvate, 1× antibiotic-antimycotic, and 1% Insulin-Transferrin-Selenium (ITS)) or chondrogenic medium (CGM, CM supplemented with 10 ng/ml transforming growth factor-β3 (TGF-β3), 100 nM dexamethasone, 50 μM L-ascorbic acid 2-phosphate, and 23 μM L-proline) up to 28 days, which were designated as Control or TGF-β3 group, respectively.
At various time points post-fabrication, cell viability was assessed with the Live/Dead Viability/Cytotoxicity kit as examined by epifluorescence microscopy. The percentage of live cells was calculated as the number of green-staining cells divided by the total number of cells (green & red staining cells).

hASCs [2] = assay: Chondrogenesis of hASCs in VL-PSL constructs (RT-PCR, hydroxyproline, histology, IHC); format: cell-based, human
Experimental: as §1
Total RNA of the cells within the constructs was isolated using TRIZOL reagent and purified. Reverse transcription reactions were performed. Real-time PCR was performed with a thermocycler. All sample values were normalized to 18S rRNA using the 2^−ΔΔCt method.
Total collagen content deposited within the constructs was determined by measuring hydroxylproline levels. The constructs (5 mm diameter and 2 mm thickness) were homogenized in water by grinding and hydrolyzed using the same volume of 12N HCl at 120° C. for 3 hours. Hydroxyproline content in constructs was quantitated using a Hydroxyproline Colorimetric Assay Kit.
After 28 days culture, constructs were removed from the incubator, washed twice, and fixed in buffered paraformaldehyde (4%) for 1 day at room temperature. After washed with PBS for 3 times, they were then cryosectioned using a cryostat at 8 μm thickness. For assessment of glycosaminoglycan deposition, the slides were stained with either Alcian Blue or Safranin-O/Fast Green following standard protocols.
Enzymatic antigen retrieval was performed using chondroitinase/hyaluronidase (1 mg/ml and 5 mg/ml) at 37° C. for 30 min, and was suppressed with 1% horse serum in PBS for 45 min. After blocking endogenous peroxidase (3% H2O2 in methanol for 10 min) and nonspecific binding (1% horse serum), slices were incubated with primary antibodies against collage type II overnight at 4° C. After washing, biotinylated secondary antibodies were applied for 30 min. Staining was developed by treating samples with horseradish peroxidase (HRP)-conjugated streptavidin/NovaRED™ peroxidase substrate.

[3] = test system: engineered osteochondral constructs; assay: IL-1β treatment of engineered osteochondral constructs, real time PCR; format: cell-based, human; settings: 10 ng/ml, 7 days
Experimental: Real time PCR. Chondral and osseous constructs were collected separately. To avoid the potential contamination, the bonded margin of each construct was cut away using a razor blade. Total RNA was extracted using Trizol (Invitrogen) following the standard protocol and purified with the RNeasy Plus mini kit (Qiagen, Hilden, Germany). SuperScript III kit (Invitrogen) was utilized with random hexamer primers to complete the reverse transcription. Real-time RT-PCR was performed using the StepOnePlus thermocycler (Applied Biosystems, Foster City, Calif.) and SYBR Green Reaction Mix (Applied Biosystems). Sox 9, Aggrecan (ACN) and collagen type II (COL2A1), RunX2, Osteocalcin (OCN), Bone sialoprotein (BSP II) expression were analyzed. Monolayers of hBMSCs cultured in GM on 2D tissue culture plastic were used as negative controls. Transcript level of 18S rRNA was used as endogenous control: […], Gene expression folder changes were calculated using the Comparative CT (ΔΔCT) method.
(§2) IL-1β treatment in engineered micro-osteochondral constructs. After 4 weeks of differentiation, engineered the osteochondral constructs were treated with IL-1β […], R&D) on the chondral or osseous sides only to investigate the cell/neo-tissue response to pro-inflammatory cytokines and possible communication through the osteochondral construct. The media used in this test were CM without TGF-β3 (chondral) and OM without BMP-2 (osseous) both supplemented with 5 ng/ml There were experimental groups: (1) CM/GM, (2) CM+IL1-1β/GM, (3) CM/GM+IL1-1β. The treatment lasted 7 days, with effluent medium collected and frozen at 1, 7 days for ELISA. After 7 days, the osteochondral constructs were bisected into the chondral and osseous halves and processed for gene expression analysis as described before. In addition to tissue specific gene expression, matrix metalloproteinase 1, 3, 13 were also analyzed.
(§3) IL1β treatment on engineered osteochondral tissue. As described above, the microtissue bioreactor presented here, with its two separate medium flow systems and biphasic construct compartments, has the capability for targeted treatment of one (or both) tissue construct(s) with soluble factors. Osseous and chondral components were separately treated with the pro-inflammatory cytokine IL-1β (10 ng/ml) for 7 days (control conditions consisted of untreated osteochondral constructs), and the responses of each of the two components were separately analyzed. Media samples were collected from chondral and osseous components streams at day 1 and 7, and, after day 7, the osteochondral constructs were separated into osseous and chondral components, and each was separately analyzed for gene expression of catabolic genes (MMP-1, MMP-3, MMP-13) and either cartilage markers (Sox9, Col2, aggrecan) (FIG. 20) or bone markers (RUNX2, osteocalcin, BSPII) (FIG. 21). Media samples from the chondral and osseous components stream collected at days 1 and 7 were analyzed via MMP-1, MMP-3, and MMP-13 ELISAs (FIG. 22).

[4] = test system: engineered osteochondral constructs; assay: IL-1β treatment of engineered osteochondral constructs, MMP ELISA of medium; format: cell-based, human
Experimental: as §2
Enzyme-linked immunosorbent assay (ELISA). Media was collected separately from chondral and osseous constructs, cleared of cell debris via centrifugation (1000×g), and analyzed via IL-1β (Abcam, Cambridge, Mass.), MMP-1 (R&D), MMP-3 (Abcam, Cambridge, Mass.), and MMP-13 (Abcam) ELISAs according to the manufacturers' instructions.
as §3

[5] = day 28, TGF-β3 group versus control group
[6] = IL-1β treatment of chondral construct
[7] = IL-1β treatment of osseous component

transforming growth factor-β3 [TGF-β3]
cell viability (hASCs [1]; chondrogenic medium supplemented with TGF-β3): 77% | cell proliferation by MTS assay (hASCs [1]; chondrogenic medium with TGF-β3): promoted cell proliferation | Alcian Blue and Safranin O staining (GAG) (hASCs [2]; day 28, TGF-β3 group): dense, strong staining | IHC for collagen type II (hASCs [2]; day 28, TGF-β3 group): positive staining | hydroxyproline level (hASCs [2]; day 28, TGF-β3 group): 21.16±7.15 μg/construct | Runx2 expression (hASCs [2]; [5]): higher in the control group | expression of Sox 9, aggrecan and collagen II (hASCs [2]; [5]): significantly higher

interleukin-1β [IL-1β]
MMPs production in the osseous construct [3, 6]: increases | osseous construct expression of osteocalcin and BSPII [3, 6]: decreases | chondral construct expression of Sox9, Col2 and aggrecan ([3]; IL-1β treatment of chondral constructs): decreases | chondral construct expression of MMP-1, MMP-3 and MMP-13 [3, 7]: increased substantially | chondral construct expression of Sox9, Col2 and aggrecan ([3]; IL-1β treatment of osseous constructs): decreased | osseous construct MMP secretion response ([4]; IL-1β treatment of chondral component, days 1 and 7): quick yet increased further over time | chondral MMP-1, MMP-3 and MMP-13 secretion [4, 7]: increases | chondral MMP-1 response time [4, 7]: 7 days | chondral MMP-13 response time [4, 7]: ≤ 1 days
